Results reported in ChEMBL document CHEMBL1150436 (Bioorg Med Chem Lett, 1995).

Columns and labels:
[1] = molecular target: T1, 5-hydroxytryptamine receptor 1A (Rattus norvegicus, UniProt P19327); test: Ability to displace [3H]-8-OH-DPAT from serotonergic 5-hydroxytryptamine 1A receptor
T1 sequence (P19327 whole entry): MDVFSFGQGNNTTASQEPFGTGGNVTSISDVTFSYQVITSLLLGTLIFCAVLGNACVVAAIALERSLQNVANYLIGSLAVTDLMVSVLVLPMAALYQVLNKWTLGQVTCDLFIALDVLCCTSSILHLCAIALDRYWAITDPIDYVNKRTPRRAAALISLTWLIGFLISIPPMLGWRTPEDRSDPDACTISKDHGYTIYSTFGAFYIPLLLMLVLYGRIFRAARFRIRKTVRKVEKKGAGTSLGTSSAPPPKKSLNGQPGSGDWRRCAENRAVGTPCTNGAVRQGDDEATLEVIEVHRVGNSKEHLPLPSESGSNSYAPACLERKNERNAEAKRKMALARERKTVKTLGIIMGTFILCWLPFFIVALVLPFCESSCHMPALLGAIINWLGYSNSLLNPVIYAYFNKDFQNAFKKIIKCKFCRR

[2] = molecular target: T2, Serotonin 2 (5-HT2) receptor (Rattus norvegicus, UniProt P30994+P08909+P14842); test: Ability to displace [3H]ketanserin from serotonergic 5-hydroxytryptamine 2 receptor; assay type: protein assay
D(2) dopamine receptor [3] = molecular target: T3, D(2) dopamine receptor (Rattus norvegicus, UniProt P61169); test: Ability to displace [3H]spiperone from D2 dopamine receptor isolated from the striata of male Wistar rats
T3 sequence (P61169 whole entry): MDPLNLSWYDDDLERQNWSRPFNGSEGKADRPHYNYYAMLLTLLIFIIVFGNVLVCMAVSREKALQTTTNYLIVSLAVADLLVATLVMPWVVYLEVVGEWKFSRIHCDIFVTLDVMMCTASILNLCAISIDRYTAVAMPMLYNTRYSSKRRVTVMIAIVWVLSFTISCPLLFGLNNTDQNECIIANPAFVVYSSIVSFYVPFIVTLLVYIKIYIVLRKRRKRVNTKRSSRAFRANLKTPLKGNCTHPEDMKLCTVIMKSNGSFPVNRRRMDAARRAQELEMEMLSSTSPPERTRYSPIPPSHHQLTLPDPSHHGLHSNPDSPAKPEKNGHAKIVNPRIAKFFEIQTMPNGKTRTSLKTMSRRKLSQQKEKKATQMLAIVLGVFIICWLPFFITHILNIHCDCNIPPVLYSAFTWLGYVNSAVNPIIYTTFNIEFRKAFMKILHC

[4] = molecular target: T1, 5-hydroxytryptamine receptor 1A; test: Compound was evaluated for its ability to displace [3H]8-OH-DPAT from serotonergic 5-hydroxytryptamine 1A receptor
[5] = molecular target: T2, Serotonin 2 (5-HT2) receptor; test: Compound was evaluated for its ability to displace [3H]ketanserin from serotonergic 5-hydroxytryptamine 2 receptor; assay type: protein assay
D(2) dopamine receptor [6] = molecular target: T3, D(2) dopamine receptor; test: Compound was evaluated for its ability to displace [3H]spiperone from D2 dopamine receptor isolated from the striata of male Wistar rats

Row | Ki [1] [nM] | Ki [2] [nM] | Ki (D(2) dopamine receptor [3]) [nM] | Ki [4] [nM] | Ki [5] [nM] | Ki (D(2) dopamine receptor [6]) [nM] | SMILES
1 | 220 | 420 | 310 |  |  |  | CN1CCOc2c(C(=O)NC[C@@H]3CCCN3Cc3ccccc3)cc(Cl)cc21
2 | > 1000 | > 1000 | > 1000 |  |  |  | CCN1CCC[C@@H]1CNC(=O)c1cc(Cl)cc2c1OCC2
3 | > 1000 | > 1000 | 6.5 |  |  |  | CCN1CCC[C@H]1CNC(=O)c1cc(Cl)cc2c1OCC2
4 | 19 | 2100 | 3.6 |  |  |  | CCCCN1CCC[C@H]1CNC(=O)c1cc(SC)cc2c1OCCN2C
5 | 330 | 400 |  |  |  |  | CCCCN1CCC[C@@H]1CNC(=O)c1cc(Cl)cc2c1OCC2
6 |  |  |  | 170 | 2200 | 270 | CCCCN1CCCC1CNC(=O)c1cccc2c1OCCN2C (centres undefined)
7 | 21 | 99 | 210 |  |  |  | CN1CCOc2c(C(=O)NC[C@H]3CCCN3Cc3ccccc3)cc(Cl)cc21
8 | > 1000 | > 1000 | > 1000 |  |  |  | CCN1CCC[C@@H]1CNC(=O)c1cc(Cl)cc2c1OCCN2C
9 |  |  |  | > 1000 | > 1000 | 690 | CCCCCCCCCN1CCC[C@@H]1CNC(=O)c1cc(Cl)cc2c1OCCN2C
10 | 880 | 550 | 270 |  |  |  | CSc1cc(C(=O)NC[C@@H]2CCCN2Cc2ccccc2)c2c(c1)N(C)CCO2
11 |  |  |  | 1200 | > 1000 |  | CCCCN1CCC[C@H]1CNC(=O)c1cc(S(N)(=O)=O)ccc1OC
12 | 17 | 27 | 4.2 |  |  |  | CSc1cc(C(=O)NC[C@H]2CCCN2Cc2ccccc2)c2c(c1)N(C)CCO2
13 | 330 | > 1000 | 84 |  |  |  | CCCCCCCCCN1CCC[C@@H]1CNC(=O)c1cc(Cl)cc2c1OCC2
14 |  |  |  | 430 |  | 630 | CCCCN1CCC[C@@H]1CNC(=O)c1cc(Cl)cc2c1OCCN2C
15 |  |  |  | 450 | 3000 | 670 | CCCCN1CCCC1CNC(=O)c1cc(S(N)(=O)=O)cc2c1OCCN2C (centres undefined)
16 | 81 | 2300 | 180 |  |  |  | CCCCCCCCCN1CCC[C@H]1CNC(=O)c1cc(S(N)(=O)=O)ccc1OC
17 | 10 |  | 800 |  |  |  | CN1CCOc2c(C(=O)NC[C@@H]3CCCN3CCc3ccccc3)cc(Cl)cc21
18 |  |  |  | 280 | > 1000 | 750 | CCCCCCCCCN1CCC[C@H]1CNC(=O)c1cc(Cl)cc2c1OCCN2C

The next lines start with the compound.

Row | SMILES | Ki [1] [nM] | Ki [2] [nM] | Ki (D(2) dopamine receptor [3]) [nM] | Ki [4] [nM] | Ki [5] [nM] | Ki (D(2) dopamine receptor [6]) [nM]
19 | CCCCN1CCC[C@@H]1CNC(=O)c1cc(SC)cc2c1OCCN2C | 120 | 22 | 17 |  |  | 
20 | CCCCCCCCCN1CCC[C@@H]1CNC(=O)c1cc(Cl)cc2c1OCC(=O)N2C | > 1000 | > 1000 | > 1000 |  |  | 
21 | CCN1CCC[C@H]1CNC(=O)c1cc(Cl)cc2c1OCCN2C | > 1000 | > 1000 | 16 |  |  | 
22 | CCCCCCCCCN1CCC[C@@H]1CNC(=O)c1cc(S(N)(=O)=O)ccc1OC | 16 | 3700 | 92 |  |  | 
23 | CCCCCCCCCN1CCC[C@H]1CNC(=O)c1cc(Cl)cc2c1OCC2 | 570 | > 1000 | > 1000 |  |  | 
24 | CCCCN1CCC[C@H]1CNC(=O)c1cc(Cl)cc2c1OCC2 | 18 | 3300 |  |  |  | 
25 | CCCCN1CCC[C@@H]1CNC(=O)c1cc(S(N)(=O)=O)ccc1OC |  |  |  | 4500 | > 1000 | 
26 | CCN1CCC[C@@H]1CNC(=O)c1cc(Cl)cc2c1OCC(=O)N2C | > 1000 | > 1000 | > 1000 |  |  | 
27 | CCN1CCC[C@H]1CNC(=O)c1cc(Cl)cc2c1OCC(=O)N2C | > 1000 | > 1000 | > 1000 |  |  | 
28 | CN1CCOc2c(C(=O)NC[C@H]3CCCN3CCc3ccccc3)cc(Cl)cc21 | 35 | 1700 | 57 |  |  | 
29 | CCCCN1CCC[C@@H]1CNC(=O)c1cc(Cl)cc2c1OCC(=O)N2C | > 1000 | > 1000 | > 1000 |  |  | 
30 | CCCCN1CCC[C@H]1CNC(=O)c1cc(Cl)cc2c1OCCN2C |  |  |  | 34 |  | 12
31 | CCCCCCCCCN1CCC[C@H]1CNC(=O)c1cc(Cl)cc2c1OCC(=O)N2C | > 1000 | > 1000 | > 1000 |  |  | 
32 | CCCCN1CCC[C@H]1CNC(=O)c1cc(Cl)cc2c1OCC(=O)N2C | > 1000 | > 1000 | > 1000 |  |  | 
